# Measurements reported in publication PMC10534422, “Divergence in Glyphosate Susceptibility between Steinchisma laxum Populations Involves a Pro106Ser Mutation” (Plants, 2023).
# Read-outs that look alike come from different tables or passages of the source.
# Key:
# [1] = tested on: T1, EPSPS (5-enolpyruvylshikimate-3-phosphate synthase); assay: EPSPS activity by phosphate release (EnzChek Phosphate Assay), leaf extract; assay type: biochemical, Steinchisma laxum; conditions: R population (Pro106Ser found in R plants); glyphosate 0-1000 µM; stated gain; read-out: I50
# T1 construct: native enzyme extracted from leaf tissue, not purified to homogeneity, activity per total soluble protein
# [2] = tested on: T1, EPSPS (5-enolpyruvylshikimate-3-phosphate synthase); assay: as above; assay type: biochemical, Steinchisma laxum; conditions: S population; glyphosate 0-1000 µM; read-out: I50
structure (smiles),measurement,setting,value
"O=C(O)CNCP(=O)(O)O [glyphosate, N-(phosphonomethyl) glycine]",IC50,[1],14.7 µM
same,IC50,[2],0.98 µM
